From US20220387432A1 (priority 2019, published 2022)

Experiments:
[1] = tested on: PrP^Sc-induced synaptotoxicity on hippocampal neurons; details: cited from earlier work
[2] = tested on: amyloid β-derived diffusible ligand (ADDL) induced synaptotoxicity; details: cited from earlier work
CKIε = CKIε (Homo sapiens, UniProt P49674); details: Verkaar et al. (2011); cited from earlier work
CKIδ = CKIδ (Homo sapiens, UniProt P48730); details: Verkaar et al. (2011); cited from earlier work
[3] = tested on: PrP^Sc-induced synaptotoxicity on hippocampal neurons; assay: cells; type: cell-based, mice
[4] = tested on: PrP^Sc-induced synaptotoxicity on hippocampal neurons; type: cell-based, mice

Chain of CKIε (P49674 whole entry, species assumed): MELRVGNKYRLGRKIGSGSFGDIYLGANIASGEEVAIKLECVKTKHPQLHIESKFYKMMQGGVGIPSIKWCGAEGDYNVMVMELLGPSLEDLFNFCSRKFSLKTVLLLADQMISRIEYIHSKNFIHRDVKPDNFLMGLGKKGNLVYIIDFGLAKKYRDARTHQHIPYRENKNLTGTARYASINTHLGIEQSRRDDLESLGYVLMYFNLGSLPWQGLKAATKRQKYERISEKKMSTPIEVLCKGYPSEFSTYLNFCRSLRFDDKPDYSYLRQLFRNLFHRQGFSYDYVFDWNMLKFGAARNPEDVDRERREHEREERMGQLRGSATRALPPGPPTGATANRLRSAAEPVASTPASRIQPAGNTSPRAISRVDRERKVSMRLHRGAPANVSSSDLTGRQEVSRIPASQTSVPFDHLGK
Chain of CKIδ (P48730 whole entry, species assumed): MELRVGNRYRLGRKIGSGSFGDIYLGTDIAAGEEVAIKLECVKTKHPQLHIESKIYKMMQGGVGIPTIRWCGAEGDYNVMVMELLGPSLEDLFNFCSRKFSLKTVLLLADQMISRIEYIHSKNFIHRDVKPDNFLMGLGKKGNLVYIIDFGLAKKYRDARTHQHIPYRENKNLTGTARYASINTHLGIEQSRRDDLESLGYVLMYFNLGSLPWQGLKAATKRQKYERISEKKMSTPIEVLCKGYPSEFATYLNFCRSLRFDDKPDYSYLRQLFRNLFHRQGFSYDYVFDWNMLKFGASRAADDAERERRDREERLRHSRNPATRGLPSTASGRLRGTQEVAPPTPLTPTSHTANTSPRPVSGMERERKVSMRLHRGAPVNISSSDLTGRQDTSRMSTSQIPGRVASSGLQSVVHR

For `COc1nccc(-c2c(-c3ccc(F)cc3)ncn2C2CCC(O)CC2)n1` (centres unmarked) [SB239063], the “Effect on PrP^Sc-induced retraction of dendritic spines / synaptotoxicity” value [1] is listed as “blocked”, the “Effect against ADDL induced synaptotoxicity” value [2] is listed as “ineffective” and the “Effect on Aβ oligomer induced dendritic spine retraction / loss” value [2] is listed as “no significant effect”. For the same compound, the “Inhibition of casein kinase isoform CKIε” value (CKIε) was “reported to inhibit”, the “Inhibition of casein kinase isoform CKIδ” value (CKIδ) was “reported to inhibit” and the “Effect on spine retraction caused by PrP^Sc” value [3] was “prevented spine retraction”. The “Reversal of dendritic spine retraction accrued during first 24 hrs of PrP^Sc treatment” value [3] was “able to reverse the dendritic spine retraction”.

In the case of `O=c1ncn2nc(Sc3ccc(F)cc3F)ccc2c1-c1c(Cl)cccc1Cl` [neflamapimod], the “Effect against ADDL induced synaptotoxicity” value [2] is listed as “showed positive effects”, the “Effect on PrP^Sc effects on mEPSC properties (frequency and amplitude)” value [4] is listed as “blocked” and the “Dose dependence of effect on PrP^Sc-induced spine loss” value [3] is listed as “dose dependent”. For the same compound, the “Effect on PrP^Sc effects on dendritic spine number” value [3] was “blocked” and the EC50 ([3]; Mus musculus, Hippocampal neuron, 24 h, read-out: EC50 of dose response curve for the rescuing effect on spine number) was 28.9 nM.

For `Cc1cccc(C#Cc2ccccc2)n1` [MPEP], the “Effect on PrP^Sc-induced retraction of dendritic spines / synaptotoxicity” value [1] is listed as “had no influence” and the “Effect on Aβ oligomer induced dendritic spine retraction / loss” value [2] is listed as “blocked”.
